Test results published in paper PMC9321663, “The DevTox Germ Layer Reporter Platform: An Assay Adaptation of the Human Pluripotent Stem Cell Test” (Toxics, 2022).
Like-named read-outs stand apart in the source and are kept apart here. Starred links: 1 amine or outer side, 2 acyl side, 3 side chain; linkers in the order of their positions; H or OH if unused. Positions of bridges follow the written chain, without caps; N, C: chain ends. Non-standard residues stand in square brackets, D forms with d. Residues, ends and D or L forms follow the SMILES beside them. Chains are numbered I, II in the order given. Actinocin(9to1) = Cc1c2oc3c(C)ccc(C(=O)[*:1])c3nc-2c(C(=O)[*:2])c(N)c1=O; NMeV = CN[C@H](C(=O)O)C(C)C; Sar = CNCC(=O)O

Tests used:
H9 human ESC line = conditions: cited from earlier work
[1] = tested on: SOX2 (ectoderm and pluripotency marker) in RUES2-GLR cells; experiment: DevTox GLR-Endo assay: increase in percent SOX2-positive cells (AEID 3095, Sox2_up); conditions: for AC50 / Emax: Homo sapiens; for AC50: read-out: ga (winning model); for Emax: read-out: tp (winning model); for MAX_MEAN: tcpl plot AEID3095, maximum mean response; for MAX_MED: tcpl plot AEID3095, maximum median response
[2] = cited from earlier work; for Development Toxicant Classification: Table S2; for Classification: developmental toxicant classification (Teratogen / Non-Teratogen) of reference and training chemicals, ref DOI per chemical: 10.1093/toxsci/kft239, 10.1093/toxsci/kfaa014, 10.1177/026119290203000204, 10.1038/s41598-020-59542-x; for DT Class.: developmental toxicant classification, chemicals common with hPST
RUES2-GLR cells = experiment: DevTox GLR-Endo assay: decrease in total cell count, cytotoxicity (AEID 3098, CellCount_dn); conditions: for Emax: Homo sapiens, read-out: Cell Count % Max Inhibition
[3] = as above; conditions: human
[4] = tested on: SOX17 (endoderm marker) in RUES2-GLR cells; experiment: DevTox GLR-Endo assay: increase in percent SOX17-positive cells (AEID 3093, Sox17_up); type: cell-based, human; conditions: for Emax: Homo sapiens; for HIT−CALL: tcpl plot AEID3093, COFF 20.3
Experimental: The total test chemical incubation period was 48 h.
(Supplementary Materials).

[5] = tested on: SOX17 (endoderm marker) in RUES2-GLR cells; experiment: DevTox GLR-Endo assay: decrease in percent SOX17-positive cells (AEID 3094, Sox17_dn); conditions: for AC50 / Emax: Homo sapiens; for Hit Call: Table S2, SOX17-positive cells, cutoff 3*bmad; for DevTox ACC: Table S2, percent SOX17-positive cells, 48 h exposure; for HIT−CALL: tcpl plot AEID3094, COFF 20.3
Procedure, shortened: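 RUES2-GLR cells under endoderm differentiation exposed to test chemicals for 48 h in total, with 0.2% DMSO solvent control and SB431542 (1 µM) as developmental-toxicant control. Endpoints: decrease in total cell count and in percent SOX17-positive cells; n = 4 biological replicates minimum.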

[6] = tested on: SOX17 in H9 human ESC line; conditions: SOX17 half-maximal inhibition concentration; read-out: hPST IC50; cited from earlier work
[7] = cytotoxicity half-maximal concentration
[8] = tcpl plot AEID3093, maximum mean response, read-out: MAX_MEAN
[9] = tcpl plot AEID3093, maximum median response, read-out: MAX_MED
[10] = 48 h, read-out: DevTox-GLR Endo AC50 (µM), SOX17 half-maximal activity concentration, 48 h exposure
[11] = read-out: DevTox % Max Inhibition
[12] = read-out: ga (winning model), tcpl plot AEID3094, gain parameter of winning curve fit (log concentration, µM axis), hit calls only (converted)

| Structure (SMILES) | hPST TC50 (H9 human ESC line; [7]) [nM] | hPST TC50 (H9 human ESC line; hPST cytotoxicity) [nM] | AC50 [1] [nM] | Emax [1] [%] | MAX_MEAN [1] [Percent Activity] | MAX_MED [1] [Percent Activity] | Development Toxicant Classification [2] | Classification [2] | DT Class. [2] | Emax (RUES2-GLR cells) [%] | Emax [4, 8] [%] | Emax [4, 9] [%] | HIT−CALL [4] | Emax [5, 11] [%] | Emax ([5]; read-out: MAX_MEAN) [%] | Emax ([5]; read-out: MAX_MED) [%] | Hit Call [5] | DevTox ACC [5] [µM] | HIT−CALL [5] | IC50 [6] [nM] | further results |
| --- | --- | --- | --- | --- | --- | --- | --- | --- | --- | --- | --- | --- | --- | --- | --- | --- | --- | --- | --- | --- | --- |
| CCN(CC)CCNC(=O)c1c(C)[nH]c(/C=C2\C(=O)Nc3ccc(F)cc32)c1C [Sunitinib] | 3600 | 3600 | 5410 | 6.74 | 3 | 3.23 | Positive | Teratogen | Pos | 97.7 | 0.538 | 0.596 | 0 | 102 | 102 | 102 | Positive | 0.5184 | 1 | 2800 | Cell Count ACC (RUES2-GLR cells; Table S2, 48 h exposure): 0.6087 µM; CC50 at 48 h ([3]; RUES2-GLR cells under directed endoderm differentiation): 1260 nM; SOX17 ACC relative to cytotoxic concentration (in words) [5]: below cytotoxic concentrations; AC50 [5, 10]: 630 nM; AC50 [5, 12]: 628 nM; Emax ([5]; read-out: tp (winning model)): 101% |
| O=C1Cc2cc(CCN3CCN(c4nsc5ccccc45)CC3)c(Cl)cc2N1 [Ziprasidone] | 5100 | 5100 | 3670 | 4.2 | 4.63 | 4.3 | Positive | Teratogen | Pos | 93.7 | 3.27 | 4.35 | 0 | 101 | 101 | 101 | Positive | 2.997 | 1 | 2800 | Cell Count ACC (RUES2-GLR cells; human, 48 h): 1.527 µM; CC50 at 48 h [3]: 2420 nM; AC50 [5, 10]: 3570 nM; AC50 [5, 12]: 3560 nM; Emax ([5]; read-out: tp (winning model)): 101% |
| Nc1nc2ncc(CNc3ccc(C(=O)N[C@@H](CCC(=O)O)C(=O)O)cc3)nc2c(=O)[nH]1 [Folic Acid] | 84000 | 84000 | – | – | 0.885 | 0.515 | – | – | – | 13.7 | 8.84 | 8.92 | 0 | 16.4 | 13.8 | 16.4 | Negative | >200 | 0 | 39000 | Cell Count ACC (RUES2-GLR cells; human, 48 h): >200 µM; CC50 at 48 h [3]: > 200000 nM; AC50 [5, 10]: > 200000 nM |
| Cc1c2oc3c(C)ccc(C(=O)N[C@@H]4C(=O)N[C@H](C(C)C)C(=O)N5CCC[C@H]5C(=O)N(C)CC(=O)N(C)[C@@H](C(C)C)C(=O)O[C@@H]4C)c3nc-2c(C(=O)N[C@@H]2C(=O)N[C@H](C(C)C)C(=O)N3CCC[C@H]3C(=O)N(C)CC(=O)N(C)[C@@H](C(C)C)C(=O)O[C@@H]2C)c(N)c1=O [Actinomycin D] (I: T[dV]P[Sar][NMeV] / II: T[dV]P[Sar][NMeV]; ester I:1-I:C, II:1-II:C; linker I:N-II:N via Actinocin(9to1)) | <10 | < 10 | 100 | 24 | 20.2 | 20.2 | Positive | Teratogen | Pos | 96 | – | – | 0 | 101 | 102 | 101 | Positive | 2.881e-05 | 1 | < 10 | Cell Count ACC (RUES2-GLR cells; Table S2, 48 h exposure): 0.0003574 µM; CC50 [3]: 0.48 nM; Emax ([4]; read-out: MAX_MEAN): 6.35%; Emax ([4]; read-out: MAX_MED): 3.62%; SOX17 ACC relative to cytotoxic concentration (in words) [5]: below cytotoxic concentrations; AC50 ([5]; 48 h, read-out: DevTox-GLR Endo AC50 (µM)): 0.037 nM; AC50 ([5]; read-out: ga (winning model)): 0.0363 nM; Emax ([5]; read-out: tp (winning model)): 101% |
